From US11076595B2, “1-(n,n-disubstituted carbamoyl) 4-(substituted sulfonyl)triazolin-5-one derivative, 4-(n,n-disubstituted carbamoyl) 1-(substituted sulfonyl)triazolin-5-one derivative, and herbicide containing said derivative as active ingredient” (HOKKO CHEMICAL INDUSTRY CO., LTD., priority 2017, dated 2021) come the findings set out here.

Holding throughout (assay type): in vivo
For assay [1], the system named is Echinochloa crus-galli. The assay is described as follows: Test Example 11: herbicidal effect test by soil treatment in paddy field. The settings on record: 120 g/10a active ingredient, 14 days after treatment. The method in brief:
(§1)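 Pre-emergence paddy test, 120 g a.i./10 are, emulsifiable concentrate diluted in water and added dropwise to ~3 cm flood water right after sowing (30 seeds/species, 0–1 cm depth, fertilized puddled soil). Greenhouse; 2 replicates; dry-weight suppression (%) vs untreated, day 14.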

The test system of assay [2] is Lindernia pyxidaria. The description is as above. The settings on record: 120 g/10a active ingredient, 14 days after treatment. Put shortly:
as §1

The test system of assay [3] is Monochoria vaginalis. Described as above. The settings on record: 120 g/10a active ingredient, 14 days after treatment. The method in brief: as §1
The test system of assay [4] is Scirpus juncoides. The assay is described as above. To be noted: 120 g/10a active ingredient, 14 days after treatment. Put shortly: as §1
For assay [5], the system named is Echinochloa crus-galli. Nature of the assay: Test Example 12: herbicidal effect test by treatment during growing period in paddy field. The settings on record: 120 g/10a; treatment seven days after sowing in flooded paddy pot; assessed 14 days after treatment. The method in brief: (§2)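 Water-diluted emulsifiable concentrate added dropwise to flooded pots (~3 cm water) 7 d after sowing; rate 120 g active ingredient per 10 are. Weeds grown from 30 seeds each in puddled paddy soil under greenhouse conditions. Dry-weight suppression rate relative to untreated plots determined 14 d after treatment, duplicates.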

For assay [6], the system named is Lindernia pyxidaria. The description is as above. To be noted: 120 g/10a; treatment seven days after sowing in flooded paddy pot; assessed 14 days after treatment. The method in brief: as §2
Assay [7] deals with Monochoria vaginalis. Described as above. The settings on record: 120 g/10a; treatment seven days after sowing in flooded paddy pot; assessed 14 days after treatment. Put shortly: as §2
For assay [8], the system named is Scirpus juncoides. The assay is described as above. To be noted: 120 g/10a; treatment seven days after sowing in flooded paddy pot; assessed 14 days after treatment. Put shortly: as §2
The next assay relates to Amaranthus viridis. Nature of the assay: Test Example 13: herbicidal effect test by soil treatment in upland field. To be noted: 120 g/10a, 14 days after treatment. The method, then: (§3) A pot having a size of 36 cm^2 was filled with field soil (alluvial soil) and after mixing the soil of the surface layer of 1 cm with 20 grains of each weed seed of crabgrass, Echinochloa crus-galli, Chenopodium album and Amaranthus viridis, the surface layer was pressed lightly. One day after the sowing, an emulsifiable concentrate prepared according to Formulation Example 15 by using the compound shown in Table 11 below was diluted with water, and the water-diluted formulation was sprayed on the soil surface at a ratio of 100 liter per 10 are. The application rate of the active ingredient, by conversion, corresponded to 120 g per 10 are. Fourteen Days after the formulation treatment, the herbicidal effect was evaluated by the same criteria as in Test Example 11.

A further assay concerns Chenopodium album. The assay is described as above. To be noted: 120 g/10a, 14 days after treatment. How it is done: as §3
The subject of assay [9] is Echinochloa crus-galli. The assay is described as above. To be noted: 120 g/10a, 14 days after treatment. How it is done: as §3
The next assay relates to crabgrass. The description is as above. The settings on record: 120 g/10a, 14 days after treatment. How it is done: as §3

On to `CC(C)N(C(=O)n1cnn(S(=O)(=O)c2ccc(C(C)(C)C)cc2)c1=O)c1ccc(F)cc1F` [Compound 11-682], for which the “Weed suppression rate (%) Echinochloa crus-galli” value amounted to 100% in the assay on Echinochloa crus-galli [1] and 90% in the assay on Echinochloa crus-galli [5]. In addition, the “Weed suppression rate (%) Lindemia pyxidaria” value with Lindernia pyxidaria [2] and in the assay with Lindernia pyxidaria [6] was 90% throughout. Besides, the “Weed suppression rate (%) Monochoria vaginalis” value in the assay on Monochoria vaginalis [3] and with Monochoria vaginalis [7] was 90% in each case. Moreover, the “Weed suppression rate (%) Scirpus juncoides” value came out at 90% with Scirpus juncoides [4] and 80% in the assay on Scirpus juncoides [8]. Further, the “herbicidal effect, Amaranthus viridis” value in the assay with Amaranthus viridis came out at 40%. The “herbicidal effect, Chenopodium album” value with Chenopodium album was found to be 40%. In addition, the “herbicidal effect, Echinochloa crus-galli” value in the assay on Echinochloa crus-galli [9] stood at 90%. In the assay on crabgrass, the “herbicidal effect, Crabgrass” value is reported as 80%.

Turning to `CCN(CC)C(=O)n1cnn(S(=O)(=O)c2ccccc2)c1=O` [Compound 11-352], the “Weed suppression rate (%) Echinochloa crus-galli” value with Echinochloa crus-galli [1] and in the assay on Echinochloa crus-galli [5] was 100% throughout. Further, the “Weed suppression rate (%) Lindemia pyxidaria” value is 60% in the assay on Lindernia pyxidaria [2] and 70% in the assay on Lindernia pyxidaria [6]. For the same molecule, the “Weed suppression rate (%) Monochoria vaginalis” value with Monochoria vaginalis [3] is listed as 50%; in the assay on Monochoria vaginalis [7], 60%. Also, the “Weed suppression rate (%) Scirpus juncoides” value in the assay with Scirpus juncoides [4] and in the assay with Scirpus juncoides [8] was 60% in each case. Further, the “herbicidal effect, Amaranthus viridis” value in the assay with Amaranthus viridis was determined as 0%. The “herbicidal effect, Chenopodium album” value in the assay on Chenopodium album is 40%. Further, the “herbicidal effect, Echinochloa crus-galli” value in the assay with Echinochloa crus-galli [9] was 80%. The “herbicidal effect, Crabgrass” value with crabgrass came to 80%.

`CC(C)N(C(=O)n1cnn(S(=O)(=O)Cc2ccccc2)c1=O)c1ccc(F)cc1F` [Compound 11-944]: the “Weed suppression rate (%) Echinochloa crus-galli” value with Echinochloa crus-galli [1] and with Echinochloa crus-galli [5] was 90% in each case. The “Weed suppression rate (%) Lindemia pyxidaria” value in the assay on Lindernia pyxidaria [2] amounted to 100%; in the assay on Lindernia pyxidaria [6], 90%. Moreover, the “Weed suppression rate (%) Monochoria vaginalis” value was 100% in the assay on Monochoria vaginalis [3] and 90% with Monochoria vaginalis [7]. Further, the “Weed suppression rate (%) Scirpus juncoides” value with Scirpus juncoides [4] and in the assay on Scirpus juncoides [8] was 90% each time. In the assay with Amaranthus viridis, the “herbicidal effect, Amaranthus viridis” value is 0%. The “herbicidal effect, Chenopodium album” value in the assay with Chenopodium album is 0%. Besides, in the assay with Echinochloa crus-galli [9], the “herbicidal effect, Echinochloa crus-galli” value is 90%. Also, the “herbicidal effect, Crabgrass” value in the assay with crabgrass is 90%.

In the case of `CC(C)N(C(=O)n1cnn(S(=O)(=O)c2ccccc2)c1=O)c1ccc(F)cc1` [Compound 11-358], the “Weed suppression rate (%) Echinochloa crus-galli” value in the assay with Echinochloa crus-galli [1] and in the assay on Echinochloa crus-galli [5] was 90% each time. The “Weed suppression rate (%) Lindemia pyxidaria” value in the assay on Lindernia pyxidaria [2] and with Lindernia pyxidaria [6] was 80% each time. The “Weed suppression rate (%) Monochoria vaginalis” value in the assay on Monochoria vaginalis [3] and with Monochoria vaginalis [7] was 80% throughout. Moreover, the “Weed suppression rate (%) Scirpus juncoides” value in the assay with Scirpus juncoides [4] and in the assay with Scirpus juncoides [8] was 90% each time. Moreover, in the assay with Amaranthus viridis, the “herbicidal effect, Amaranthus viridis” value is recorded as 90%. In the assay on Chenopodium album, the “herbicidal effect, Chenopodium album” value is given as 80%. Besides, the “herbicidal effect, Echinochloa crus-galli” value with Echinochloa crus-galli [9] was determined as 80%. Further, the “herbicidal effect, Crabgrass” value in the assay on crabgrass is on record as 90%.

On to `CC(C)N(C(=O)n1cnn(S(=O)(=O)c2ccc(Cl)cc2)c1=O)c1ccc(F)cc1F` [Compound 11-588], for which the results for the “Weed suppression rate (%) Echinochloa crus-galli” value with Echinochloa crus-galli [1] and in the assay with Echinochloa crus-galli [5] were 90% and 80%, respectively. The “Weed suppression rate (%) Lindemia pyxidaria” value in the assay on Lindernia pyxidaria [2] and in the assay with Lindernia pyxidaria [6] was 90% each time. In addition, the “Weed suppression rate (%) Monochoria vaginalis” value with Monochoria vaginalis [3] and in the assay with Monochoria vaginalis [7] was 90% throughout. Besides, the “Weed suppression rate (%) Scirpus juncoides” value in the assay with Scirpus juncoides [4] came to 90%; with Scirpus juncoides [8] it was 70%. Also, the “herbicidal effect, Amaranthus viridis” value in the assay with Amaranthus viridis was 40%. Further, the “herbicidal effect, Chenopodium album” value in the assay with Chenopodium album is 80%. Moreover, the “herbicidal effect, Echinochloa crus-galli” value in the assay with Echinochloa crus-galli [9] stood at 80%. The “herbicidal effect, Crabgrass” value in the assay on crabgrass is 60%.
